Target: T1, IRAK4 (Homo sapiens, UniProt Q9NWZ3)
T1 construct: endogenous in cells; host or cells: OCI-LY10
T1 sequence (Q9NWZ3 1-460): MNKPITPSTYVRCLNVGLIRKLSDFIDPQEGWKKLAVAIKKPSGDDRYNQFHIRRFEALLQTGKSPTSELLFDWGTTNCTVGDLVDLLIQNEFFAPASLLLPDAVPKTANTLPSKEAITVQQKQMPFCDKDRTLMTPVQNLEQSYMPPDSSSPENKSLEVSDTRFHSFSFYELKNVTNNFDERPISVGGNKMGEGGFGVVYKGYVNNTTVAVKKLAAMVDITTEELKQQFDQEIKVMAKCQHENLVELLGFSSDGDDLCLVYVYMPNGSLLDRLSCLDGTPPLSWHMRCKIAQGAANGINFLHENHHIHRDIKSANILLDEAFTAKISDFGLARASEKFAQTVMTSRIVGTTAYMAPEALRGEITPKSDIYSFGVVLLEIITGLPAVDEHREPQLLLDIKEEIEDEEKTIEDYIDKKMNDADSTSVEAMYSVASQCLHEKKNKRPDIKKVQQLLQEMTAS
Experiment: IRAK4 MSD Degradation in OCI-LY10
Assay type: cell-based
Settings: OCI-LY10 cells, Meso Scale Discovery, incubated 4 to 24 hours
Method in brief: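 OCI-LY10 cells (300,000/well) exposed to an 8-point 1:3 series from a top concentration of 1 to 10 μM for 4 to 24 h at 37 °C. IRAK4 remaining in RIPA lysates quantified by MSD sandwich immunoassay; DC50 from a three-parameter logistic fit.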

Row | SMILES | DC50 [nM]
1 | COc1cc2nn([C@H]3CC[C@H](CN4CCC(c5cccc6c5n(C)c(=O)n6C5CCC(=O)NC5=O)CC4)CC3)cc2cc1NC(=O)c1cnc(C#N)c(Cl)c1 (stereo partly drawn) [I-136] | > 200
2 | COc1ccc2c(c1C1CCN(C[C@H]3CC[C@H](n4cc5cc(NC(=O)c6cncc(Cl)c6)ccc5n4)CC3)CC1)n(C)c(=O)n2C1CCC(=O)NC1=O (stereo partly drawn) [I-116] | 100 to 200
3 | COc1cc2nn([C@H]3C[C@H](CN4CCC(c5c(OC)ccc6c5n(C)c(=O)n6C5CCC(=O)NC5=O)CC4)C3)cc2cc1NC(=O)c1cccc(C(F)(F)F)n1 (stereo partly drawn) [I-138] | < 10
4 | Cc1ccc2c(c1C1CCN(C[C@H]3CC[C@H](n4cc5cc(NC(=O)c6cccc(C(F)(F)F)n6)ncc5n4)CC3)CC1)n(C)c(=O)n2C1CCC(=O)NC1=O (stereo partly drawn) [I-102] | < 10
5 | COc1cc2nn([C@H]3CC[C@H](CN4CCC(c5cccc6c5n(C)c(=O)n6C5CCC(=O)NC5=O)CC4)CC3)cc2cc1NC(=O)n1ccc2cccnc21 (stereo partly drawn) [I-112] | < 10
6 | Cn1c(=O)n(C2CCC(=O)NC2=O)c2cc(F)cc(C3CCN(C[C@H]4CC[C@H](n5cc6cc(NC(=O)c7cccc(C(F)(F)F)n7)c(F)cc6n5)CC4)CC3)c21 (stereo partly drawn) [I-26] | < 10
7 | COc1cc2nn([C@H]3C[C@H](CN4CCC(c5c(F)ccc6c5n(C)c(=O)n6C5CCC(=O)NC5=O)CC4)C3)cc2cc1NC(=O)c1cccc(C(F)(F)F)n1 (stereo partly drawn) [I-89] | 10 to 50
8 | CN(C[C@H]1CC[C@H](c2cc3cc(NC(=O)c4cccc(C(F)(F)F)n4)c(F)cc3n2C)CC1)C1CCN(c2cccc3c2n(C)c(=O)n3C2CCC(=O)NC2=O)CC1 (stereo partly drawn) [I-59] | > 200
9 | COc1cc2nn([C@H]3CC[C@H](CN4CCN(c5cccc6c5n(C)c(=O)n6C5CCC(=O)NC5=O)CC4)CC3)cc2cc1NC(=O)c1cncc(C#N)c1 (stereo partly drawn) [I-165] | < 10
10 | COc1ccc2c(c1C1CCN(C[C@H]3C[C@H](n4cc5cc(NC(=O)c6cccc(C(F)(F)F)n6)c(Cl)cc5n4)C3)CC1)n(C)c(=O)n2C1CCC(=O)NC1=O (stereo partly drawn) [I-145] | 10 to 50
11 | CC(C)(O)c1cc2nc([C@H]3CC[C@H](CN4CC5(CC(CCNc6cccc7c6C(=O)N(C6CCC(=O)NC6=O)C7=O)C5)C4)CC3)[nH]c2cc1NC(=O)c1cccc(C(F)(F)F)n1 (stereo partly drawn) [I-14] | 50 to 100
12 | Cn1c(=O)n(C2CCC(=O)NC2=O)c2cccc(C3CCN(C[C@H]4C[C@@H](n5cc6cc(NC(=O)c7cccc(C(F)(F)F)n7)c(F)cc6n5)C4)CC3)c21 (stereo partly drawn) [I-18] | > 200
13 | COc1cc2nn([C@H]3CC[C@H](CN4CCC(c5cccc6c5n(C)c(=O)n6C5CCC(=O)NC5=O)CC4)CC3)cc2cc1NC(=O)c1cncc(C(F)(F)F)c1 (stereo partly drawn) [I-86] | < 10
14 | O=C1CCN(c2cncc3c(C4CCN(C[C@H]5CC[C@H](n6cc7cc(NC(=O)c8cccc(C(F)(F)F)n8)ccc7n6)CC5)CC4)cccc23)C(=O)N1 [I-68] | 10 to 50
15 | COc1cc2nn([C@H]3CC[C@H](CN(C)[C@H]4CC[C@H](c5cccc6c5n(C)c(=O)n6C5CCC(=O)NC5=O)CC4)CC3)cc2cc1NC(=O)c1cccc(C(F)(F)F)n1 (stereo partly drawn) [I-5, N-[2-[4-[[[4-[1-(2,6-dioxo-3-piperidyl)-3-methyl-2-oxo-benzimidazol-4-yl]cyclohexyl]-methyl-amino]methyl]cyclohexyl]-6-methoxy-indazol-5-yl]-6-(trifluoromethyl)pyridine-2-carboxamide] | < 10

Next, values leading:

Row | DC50 [nM] | SMILES
16 | 100 to 200 | CC(C)(O)c1cc2nc([C@H]3CC[C@H](C(=O)N4CCC5(CC4)CC(CCNc4cccc6c4C(=O)N(C4CCC(=O)NC4=O)C6=O)C5)CC3)sc2cc1NC(=O)c1cccc(C(F)F)n1 (stereo partly drawn) [I-457]
17 | 10 to 50 | COc1cc2nn([C@H]3CC[C@H](CN4CCN(c5c(OC)ccc6c(N7CCC(=O)NC7=O)cncc56)CC4)CC3)cc2cc1NC(=O)c1cccc(C(F)(F)F)n1 [I-332]
18 | > 200 | Cc1cc2nn([C@H]3CC[C@H](CN4CCN(c5cccc6c5n(C)c(=O)n6C5CCC(=O)N(C)C5=O)CC4)CC3)cc2cc1NC(=O)c1cccc(C(F)(F)F)n1 (stereo partly drawn) [I-404]
19 | < 10 | Cn1c(=O)n(C2CCC(=O)NC2=O)c2cccc(C3CCN(C[C@H]4CC[C@H](n5cc6cc(NC(=O)c7cccc(C(F)(F)F)c7F)ccc6n5)CC4)CC3)c21 (stereo partly drawn) [I-214]
20 | 10 to 50 | CC(C)(O)c1cc2nc([C@H]3CC[C@H](CN4CCN(CCCNc5cccc6c5C(=O)N(C5CCC(=O)NC5=O)C6=O)CC4)CC3)sc2cc1NC(=O)c1cccc(C#N)n1 (stereo partly drawn) [I-440]
21 | 10 to 50 | O=C1CCN(c2cncc3c(C4CCN(C[C@H]5CC[C@H](n6cc7cc(NC(=O)c8cccc(C(F)(F)F)n8)c(Cl)cc7n6)CC5)CC4)cccc23)C(=O)N1 [I-370]
22 | > 200 | COc1ccc2c(c1C1CCN(C[C@H]3CC[C@H](n4cc5cc(NC(=O)c6cccc(C(F)(F)F)n6)ncc5n4)CC3)CC1)n(C)c(=O)n2C1CCC(=O)N(C)C1=O (stereo partly drawn) [I-245]
23 | < 10 | CC(C)Nc1c(C(=O)N[C@H]2CC[C@H](CN3CCN(c4cccc5c4n(C)c(=O)n5C4CCC(=O)NC4=O)CC3)CC2)cnc2c1Oc1cc(C#N)ccc1O2 (stereo partly drawn) [I-407]
24 | < 10 | CC(C)Nc1cc(-n2ccc3cc(C#N)cnc32)ncc1-c1cn([C@H]2CC[C@H](CN3CCN(c4cccc5c(N6CCC(=O)NC6=O)cncc45)CC3)CC2)nn1 [I-197]
25 | < 10 | COc1cc2nn([C@H]3CC[C@H](CN4CCN(C[C@H]5C[C@H](c6cccc7c(N8CCC(=O)NC8=O)cncc76)C5)CC4)CC3)cc2cc1NC(=O)c1cccc(C(F)(F)F)n1 [I-285]
26 | < 10 | COc1ccc2c(c1C1CCN(C[C@H]3CC[C@H](n4cc5cc(NC(=O)c6cccc(C#N)n6)ccc5n4)CC3)CC1)n(C)c(=O)n2C1CCC(=O)NC1=O (stereo partly drawn) [I-200]
27 | < 10 | Cc1ccc2c(c1C1CCN(C[C@H]3CC[C@H](n4cc5cc(NC(=O)c6cccc(C#N)n6)ccc5n4)CC3)CC1)n(C)c(=O)n2C1CCC(=O)NC1=O (stereo partly drawn) [I-323]
28 | < 10 | CSc1cc2nn([C@H]3CC[C@H](CN4CCN(c5cccc6c5n(C)c(=O)n6C5CCC(=O)NC5=O)CC4)CC3)cc2cc1NC(=O)c1cccc(C(F)(F)F)n1 (stereo partly drawn) [I-307]
29 | < 10 | C[C@H]1CN(c2cccc3c2n(C)c(=O)n3C2CCC(=O)NC2=O)CCN1C[C@H]1CC[C@H](n2cc3cc(NC(=O)c4cccc(C(F)(F)F)n4)ccc3n2)CC1 (stereo partly drawn) [I-248]
30 | < 10 | CN(C(=O)[C@H]1CC[C@H](n2cc3cc(NC(=O)c4cccc(C(F)(F)F)n4)ccc3n2)CC1)C1CCN(c2cccc3c2n(C)c(=O)n3C2CCC(=O)NC2=O)CC1 (stereo partly drawn) [I-186]
31 | < 10 | COc1cc2nn([C@H]3CC[C@H](CN4CC=C(c5cccc6c(N7CCC(=O)NC7=O)cncc56)CC4)CC3)cc2cc1NC(=O)c1cccc(C(F)(F)F)n1 [I-357]
32 | > 200 | Cc1cccc(C(=O)Nc2cc3sc([C@H]4CC[C@H](C(=O)N5CCC6(CC5)CC(CCNc5cccc7c5C(=O)N(C5CCC(=O)NC5=O)C7=O)C6)CC4)nc3cc2C(C)(C)O)n1 (stereo partly drawn) [I-474]
33 | 10 to 50 | COc1cc2nn(C3CCN(C[C@H]4CC[C@H](c5cccc6c5n(C)c(=O)n6C5CCC(=O)NC5=O)CC4)CC3)cc2cc1NC(=O)c1cccc(C(F)(F)F)n1 (stereo partly drawn) [I-237]
34 | 100 to 200 | Cc1cccc(C(=O)Nc2cc3sc([C@H]4CC[C@H](C(=O)N5CC6(CC(CCNc7cccc8c7C(=O)N(C7CCC(=O)NC7=O)C8=O)C6)C5)CC4)nc3cc2C(C)(C)O)n1 (stereo partly drawn) [I-469]
35 | > 200 | CN(CCCNc1cccc2c1C(=O)N(C1CCC(=O)NC1=O)C2=O)C(=O)[C@H]1CC[C@H](c2nc3cc(C(C)(C)O)c(NC(=O)c4cccc(C(F)(F)F)n4)cc3s2)CC1 (stereo partly drawn) [I-489]
36 | < 10 | CC(C)Nc1c(C(=O)N[C@H]2CC[C@H](CN3CCC(c4cccc5c4n(C)c(=O)n5C4CCC(=O)NC4=O)CC3)CC2)cnc2sc(-c3cncs3)cc12 (stereo partly drawn) [I-417]

— patent publication US12150995B2, “IRAK degraders and uses thereof” (Kymera Therapeutics, Inc., priority 2020, dated 2024)
